From patent US20250064886A1, “CARDIOVASCULAR AND CEREBROVASCULAR DRUG AND USE THEREOF” (HANGZHOU ADAMERCK PHARMLABS INC., priority 2021, published 2025)
Where “and” joins values, the source holds several entries; their conditions need not be identical. Identical values can stand only once.

What was measured:
[1] = test system: vascular endothelial injury induced thrombosis model in zebrafish; assay: Preventative effect on vascular endothelial injury induced thrombosis, ponatinib zebrafish model (Example 1); assay type: in vivo; details: 4.00 ng/tail injected
Method: Experimental method: 420 tails of 5 dpf wild type AB strain zebrafish were randomly selected and placed in a six-well plate, with 30 fish per well (experimental group). The fish were injected with compound (1), compound (2), compound (3), compound (4), compound (5), compound (6), compound (7), compound (8), compound (9), compound (10), and compound (11) (structural formula shown in Table 1) at a dose of 4.00 ng/tail, with positive control drug acetylsalicylic acid being administered by dissolving it in water at a concentration of 30.0 µg/mL. Normal control group (i.e. zebrafish treated with standard diluted water) and model control group were set up, with a capacity of 3 mL per well (experimental group). Except for normal control group, the remaining experimental groups were all given Punatinib by dissolving it in water to induce vascular endothelial injury induced thrombosis model in zebrafish. The zebrafish were stained with o-dianisidine after co-treatment with ponatinib and samples for a period of time under incubation conditions at 28° C.
After staining, 10 zebrafish in each group were randomly selected and photographed under the microscope, and the intensity of cardiac erythrocyte staining in zebrafish was analyzed using NIS-Elements D 3.20 advanced image-processing software, and the samples were evaluated for the preventative effect on vascular endothelial injury induced thrombosis by the statistical results of cardiac erythrocyte staining intensity.
The preventative effect on thrombosis is calculated as follows: […]
Statistical analysis was performed using SPSS software, and p<0.05 indicates significant differences

tryptase = assay: Sensitization risk: tryptase expression (OD, BAPNA) in zebrafish (Example 2); assay type: in vivo; details: for Sensitization risk, in words: 500 ng/tail; for Relative sensitization risk (compared with positive control group) / Sensitization risk (%) / Absorbance value (OD value), parallel wells 1-6 / Absorbance value (OD value), mean: 500 ng/tail intravenous; for Absorbance value (OD value), parallel wells 1-6: 28° C. 1 day, single wells; for Absorbance value (OD value), mean: mean of 6 wells
Method: Experimental method: 2 dpf wild type AB strain zebrafish were randomly selected and placed in a 24-well plate, with each group 6 parallel wells and 10 zebrafish per well. The zebrafish were injected intravenously with samples at a dose of 500 ng/tail and the positive control “C48/80” at a concentration of 1.5 μg/mL, while normal control group was set up. Each well has a capacity of 1 mL.
All experimental groups were given BAPNA by dissolving it in the water. After treatment at 28° C. for 1 day, the liquid was transferred to 96-well plates with 200 μL/well, and the relative absorbance values (OD values) of the expression levels of tryptase in each experimental group were detected using an microplate reader, and the results of the statistical analysis of the OD values were used to evaluate the risk of sensitization by sample. Statistical results were expressed as mean±SE.
Statistical analysis was performed using SPSS software, and p<0.05 indicates significant differences.

[2] = test system: arteriovenous bypass thrombosis in rats; assay: Arteriovenous bypass thrombosis in rats (Example 4); assay type: in vivo, rat
Method: Grouping: Divided into 5 groups, with 10 animals in each group. The model control group was given with solvent, and the test drug compound (1) and the positive control were given intravenously once a day for consecutive 3 d. The modeling started 30 min after the last dose.
Model preparation: 50 SD male rats were anesthetized with sodium pentobarbital at a dose of 60 mg/kg via ip. The rat was fixed in the supine position, and the skin was incised at the midline of the neck; the fascia and muscle tissues were separated, the left common carotid artery and the right external jugular vein were dissociated, and the arterio-venous (A-V) bypass surgery was performed using the polyethylene tubing with a built-in thread. The arterial clip was used to clamp the proximal end of the carotid artery, and one end of the polyethylene tubing was inserted into the artery, and another end was inserted into the vein, thereby completing the bypass surgery. 30 minutes after the last dose, the arterial clip was opened, and blood flowed from the left common carotid artery to the right external jugular vein through the bypass tubing, and the blood flow formed a bypass circulation, and the thrombus was taken out 15 min later.
(§1) Detection index: the blood flow was open after 15 min, the thread was taken out, the residual liquid was sucked dry, the thread attached with thrombus was weighed and the wet weight of thrombus was calculated; the dry weight of thrombus was weighed and calculated after bake-drying in the oven at 50° C. Thrombosis inhibition rate was calculated. Tails were clipped at the end of the experiment to detect bleeding time.

rats = assay: Bleeding time in rats, tail clipping (Example 4); assay type: in vivo, rat
Method: as §1, with “Grouping: Divided into 5 groups, with 10 animals in each group. […] The modeling started 30 min after the last dose. Detection” for “Detection”

[3] = test system: rats with focal cerebral ischemia (MCAO)/reperfusion; assay: Preventative administration, cerebral ischemia-reperfusion injury MCAO/R in rats (Example 5); assay type: in vivo, rat
Method: Experimental method: SD rats were randomly divided into six groups, i.e., pseudosurgery group, model control group, positive control drug ozagre (6 mg/kg) group, and administration drug compound (1) high-dose (67.5 mg/kg) group, medium-dose (22.5 mg/kg) group, and low-dose (7.5 mg/kg) group. The administration group was pre-administered via tail vein injection, while the pseudosurgery group and model control group were given equal volumes of physiological saline once a day for 3 consecutive days. 10 minutes after the last administration, a rat MCAO/R model was established and performed reperfusion 2 hours post ischemia. 24 hours after MCAO reperfusion, the neurobehavioral scores of rats were performed to determine their neurological function; the cerebral infarction rate and cerebral water content in rats were determined using 2,3,5-triphenyltetrazolium chloride (TTC) staining method.

[4] = test system: vascular endothelial-injury thrombosis model in zebrafish; assay: Preventative effect of compound (1) on vascular endothelial injury induced thrombosis in zebrafish (Example 3); assay type: in vivo; details: 30 μg/mL in water
Method: Experimental method: Wild-type AB strain zebrafish were treated with 4 μg/mL punatinib for 18 h to establish vascular endothelial-injury thrombosis model in zebrafish. 150 of 5 dpf wild-type AB strain zebrafish were randomly selected and placed in six-well plates with 30 fish per well (experimental group). The zebrafish were injected with compound (1) at a dose of 2.06 ng/tail, and 6.18 ng/tail, and the positive control drug acetylsalicylic acid was given by dissolving it in water with a concentration of 30 µg/mL, while the normal control group (i.e., zebrafish treated with standard dilution water) and the model control group were set up, and the volume of each well (experimental group) was 3 mL. Except for normal control group, the remaining experimental groups were all given Punatinib by dissolving it in water to induce vascular endothelial injury thrombosis model in zebrafish. The zebrafish were co-treated with compound (1) and punatinib for a period of time under incubation condition at 28° C., and then stained with o-dianisidine. After staining, 10 zebrafish were randomly selected from each group and photographed under the microscope. The intensity of cardiac erythrocyte staining in zebrafish was analyzed using NIS-Elements D 3.10 advanced image-processing software, and the preventative effect of compound (I) on vascular endothelial injury thrombosis was evaluated based on the statistical results of cardiac erythrocyte staining intensity. The preventative effect on thrombosis is calculated as follows: […]
Statistical analysis were performed using Analysis of Variance and Dunnett's t-test, and p<0.05 indicates a significant difference, providing a representative experimental plot.

[5] = test system: vascular endothelial injury induced thrombosis model in zebrafish; assay: Preventative effect on vascular endothelial injury induced thrombosis, ponatinib zebrafish model (Example 1); assay type: in vivo; details: 30.0 μg/mL dissolved in water
[6] = test system: cerebral ischemic injury in rats caused by autologous thrombus and thrombin; assay: Ischemic brain injury in rats caused by autologous thrombus and thrombin (Example 6); assay type: in vivo, rat
Method: The drug was administered once by slow tail vein injection (1 ml per minute) 2 h after modeling, and the decrease in blood flow was monitored after the injection of thrombin, and 120 min after the administration of the drug. Neurobehavioral scoring was performed to determine the neurological function of rats after 24 h. The cerebral infarction rate and cerebral water content of rats were determined using 2,3,5-triphenyltetrazolium chloride (TTC) staining method, and the pathological damage of the brain of rats administered with drug 2 h after cerebral ischemia was observed by hematoxylin-eosin (HE) staining.

[7] = 16 mg/kg i.v. once a day 3 d, in g (unit assumed)

CC(=O)N[C@@H](CSCC1OC2OC3C(CSC[C@H](NC(C)=O)C(=O)[O-])OC(OC4C(CSC[C@H](NC(C)=O)C(=O)[O-])OC(OC5C(CSC[C@H](NC(C)=O)C(=O)[O-])OC(OC6C(CSC[C@H](NC(C)=O)C(=O)[O-])OC(OC7C(CSC[C@H](NC(C)=O)C(=O)[O-])OC(OC8C(CSC[C@H](NC(C)=O)C(=O)[O-])OC(OC9C(CSC[C@H](NC(C)=O)C(=O)[O-])OC(OC1C(O)C2O)C(O)C9O)C(O)C8O)C(O)C7O)C(O)C6O)C(O)C5O)C(O)C4O)C(O)C3O)C(=O)[O-].[Na+].[Na+].[Na+].[Na+].[Na+].[Na+].[Na+].[Na+] (some centres unmarked) [Compound (2)]
Preventative effect on thrombosis (%) [1]: 39% | Cardiac erythrocyte staining intensity (pixels, mean ± SE) ([1]; n = 10): 3655 ± 318 pixels | Cardiac erythrocyte staining intensity (pixels, mean ± SE) ([1]; n = 10, listed as compound (2)): 3655 pixels | Sensitization risk, in words (tryptase): no or substantially no sensitization risk | Relative sensitization risk (compared with positive control group) (tryptase): −4% | Sensitization risk (%) (tryptase): −3.7% | Absorbance value (OD value), parallel wells 1-6 (tryptase): 0.05655 and 0.05255 and 0.04865 and 0.04785 and 0.05085 and 0.05405 | Absorbance value (OD value), mean (tryptase): 0.052

O=C(O)/C=C/c1ccc(Cn2ccnc2)cc1 [Ozagre, ozagrel, reference compound]
Dry weight inhibition rate (%) ([2]; 16 mg/kg i.v.): 34.1% | Wet weight inhibition rate (%) ([2]; 16 mg/kg i.v.): 34% | Dry weight of thrombus [2, 7]: 0.0054 ± 0.0018 | Wet weight of thrombus [2, 7]: 0.0208 ± 0.0041 | Bleeding time (rats; 16 mg/kg i.v.): 740.8 ± 224 s | Effect on the bleeding time in rats, in words (rats; intravenous, compared with model control group): significantly prolonged | Cerebral infarction rate (%) ([3]; 6 mg/kg tail vein, once a day 3 days before MCAO/R, 24 h after reperfusion, mean ± SD, n = 8): 14.39 ± 8.14 % | Behavioral score ([3]; 6 mg/kg, preventative): 1.50 ± 0.56 | Cerebral water content (%) ([3]; 6 mg/kg, preventative, tail vein 3 days): 78.42 ± 3.73 %

CC(=O)Oc1ccccc1C(=O)O [Acetylsalicylic acid, acetylsalicylic acid, reference compound]
Thromboprophylactic effect (%) [4]: 85% | Cardiac erythrocyte staining intensity (pixels, mean ± SE) ([4]; n = 10): 4655 ± 136 pixels | Preventative effect on thrombosis (%) [5]: 101% | Cardiac erythrocyte staining intensity (pixels, mean ± SE) ([5]; n = 10): 5345 ± 228 pixels

OCC1OC2OC3C(CO)OC(OC4C(CO)OC(OC5C(CO)OC(OC6C(CO)OC(OC7C(CO)OC(OC8C(CO)OC(OC9C(CO)OC(OC1C(O)C2O)C(O)C9O)C(O)C8O)C(O)C7O)C(O)C6O)C(O)C5O)C(O)C4O)C(O)C3O (centres unmarked) [Compound (10)]
Preventative effect on thrombosis (%) [1]: 64% | Cardiac erythrocyte staining intensity (pixels, mean ± SE) ([1]; n = 10): 4326 ± 383 pixels | Cardiac erythrocyte staining intensity (pixels, mean ± SE) ([1]; n = 10, listed as compound (10)): 4326 pixels | Sensitization risk, in words (tryptase): low sensitization risk | Relative sensitization risk (compared with positive control group) (tryptase): 33% | Sensitization risk (%) (tryptase): 27.8% | Absorbance value (OD value), parallel wells 1-6 (tryptase): 0.07115 and 0.06947 and 0.06795 and 0.07585 and 0.06445 | Absorbance value (OD value), mean (tryptase): 0.069

Urokinase [reference compound]
Cerebral blood flow: Percentage decrease after injection of thrombin (%) ([6]; 5000 U/kg group, value before administration): 50.10 ± 7.94% | Cerebral infarction rate (%) ([6]; 5000 U/kg i.v.): 9.72 ± 9.89 % | Cerebral water content (%) ([6]; 5000 U/kg i.v.): 79.78 ± 0.72 % | Cerebral blood flow: Percentage decrease two hours after administration (%) ([6]; 5000 U/kg i.v. once 2 h after modeling): 37.12 ± 4.49 % | Pathological damage score ([6]; 5000 U/kg i.v., HE staining): 1.75 ± 0.86 | Behavioral score ([6]; 5000 U/kg i.v., after 24 h): 1.60 ± 0.70
